Test results: PubChem BioAssay (NCI)
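Interpolation was linear, between the two tested concentrations surrounding the appropriate level; five concentrations were tested over 48 hours in 96-well plates. TGI is the concentration that stops growth completely.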

Columns and labels:
Assay in all cases: growth of human tumour cells (NCI), 48 h
786-0 renal = system: 786-0 renal
HCC-2998 colon = system: HCC-2998 colon
EKVX NSCLC = system: EKVX NSCLC
MCF7 breast = system: MCF7 breast
NCI-H23 lung = system: NCI-H23 lung
MALME-3M melanoma = system: MALME-3M melanoma
SF-539 CNS = system: SF-539 CNS
SNB-75 CNS = system: SNB-75 CNS
SK-MEL-28 melanoma = system: SK-MEL-28 melanoma
MDA-N = system: MDA-N
OVCAR-5 ovarian = system: OVCAR-5 ovarian
CAKI-1 renal = system: CAKI-1 renal
OVCAR-4 ovarian = system: OVCAR-4 ovarian
DU-145 prostate = system: DU-145 prostate
U251 CNS = system: U251 CNS
RPMI-8226 leukemia = system: RPMI-8226 leukemia
M14 melanoma = system: M14 melanoma
NCI/ADR-RES ovarian = system: NCI/ADR-RES ovarian
PC-3 prostate = system: PC-3 prostate
MOLT-4 leukemia = system: MOLT-4 leukemia
IGROV1 ovarian = system: IGROV1 ovarian
SF-295 CNS = system: SF-295 CNS
BT-549 breast = system: BT-549 breast
HCT-15 colon = system: HCT-15 colon
UACC-257 melanoma = system: UACC-257 melanoma
OVCAR-8 ovarian = system: OVCAR-8 ovarian
SK-MEL-5 melanoma = system: SK-MEL-5 melanoma
SK-MEL-2 melanoma = system: SK-MEL-2 melanoma
NCI-H226 lung = system: NCI-H226 lung
RXF 393 renal = system: RXF 393 renal
SK-OV-3 ovarian = system: SK-OV-3 ovarian
SW-620 colon = system: SW-620 colon
CCRF-CEM leukemia = system: CCRF-CEM leukemia
NCI-H460 lung = system: NCI-H460 lung
HT29 colon = system: HT29 colon
OVCAR-3 ovarian = system: OVCAR-3 ovarian
HL-60(TB) leukemia = system: HL-60(TB) leukemia
SN12C renal = system: SN12C renal
NCI-H522 lung = system: NCI-H522 lung
COLO 205 colon = system: COLO 205 colon
MDA-MB-435 = system: MDA-MB-435
UACC-62 melanoma = system: UACC-62 melanoma
HOP-92 NSCLC = system: HOP-92 NSCLC
A549 NSCLC = system: A549 NSCLC
SNB-19 CNS = system: SNB-19 CNS
KM12 colon = system: KM12 colon
K-562 leukemia = system: K-562 leukemia
TK-10 renal = system: TK-10 renal
MDA-MB-231 breast = system: MDA-MB-231 breast
SF-268 CNS = system: SF-268 CNS
T-47D breast = system: T-47D breast
HCT-116 colon = system: HCT-116 colon
ACHN renal = system: ACHN renal
HS 578T breast = system: HS 578T breast
SR leukemia = system: SR leukemia
UO-31 renal = system: UO-31 renal
HOP-62 NSCLC = system: HOP-62 NSCLC
A498 renal = system: A498 renal
LOX IMVI melanoma = system: LOX IMVI melanoma

Cc1ccc(S(=O)(=O)c2c(O)c3ccc(O)c(C)c3oc2=O)cc1
TGI (786-0 renal): > 100 µM
TGI (HCC-2998 colon): > 100 µM
TGI (EKVX NSCLC): > 100 µM
TGI (MCF7 breast): > 100 µM
TGI (NCI-H23 lung): > 100 µM
TGI (MALME-3M melanoma): > 100 µM
TGI (SF-539 CNS): > 100 µM
TGI (SNB-75 CNS): > 100 µM
TGI (SK-MEL-28 melanoma): > 100 µM
TGI (MDA-N): > 100 µM
TGI (OVCAR-5 ovarian): > 100 µM
TGI (CAKI-1 renal): > 100 µM
TGI (OVCAR-4 ovarian): > 100 µM
TGI (DU-145 prostate): > 100 µM
TGI (U251 CNS): > 100 µM
TGI (RPMI-8226 leukemia): > 100 µM
TGI (M14 melanoma): > 100 µM
TGI (NCI/ADR-RES ovarian): > 100 µM
TGI (PC-3 prostate): > 100 µM
TGI (MOLT-4 leukemia): > 100 µM
TGI (IGROV1 ovarian): > 100 µM
TGI (SF-295 CNS): > 100 µM
TGI (BT-549 breast): > 100 µM
TGI (HCT-15 colon): > 100 µM
TGI (UACC-257 melanoma): > 100 µM
TGI (OVCAR-8 ovarian): > 100 µM
TGI (SK-MEL-5 melanoma): > 100 µM
TGI (SK-MEL-2 melanoma): > 100 µM
TGI (NCI-H226 lung): > 100 µM
TGI (RXF 393 renal): > 100 µM
TGI (SK-OV-3 ovarian): > 100 µM
TGI (SW-620 colon): > 100 µM
TGI (CCRF-CEM leukemia): > 100 µM
TGI (NCI-H460 lung): > 100 µM
TGI (HT29 colon): > 100 µM
TGI (OVCAR-3 ovarian): > 100 µM
TGI (HL-60(TB) leukemia): > 100 µM
TGI (SN12C renal): > 100 µM
TGI (NCI-H522 lung): > 100 µM
TGI (COLO 205 colon): > 100 µM
TGI (MDA-MB-435): > 100 µM
TGI (UACC-62 melanoma): > 100 µM
TGI (HOP-92 NSCLC): > 100 µM
TGI (A549 NSCLC): > 100 µM
TGI (SNB-19 CNS): > 100 µM
TGI (KM12 colon): > 100 µM
TGI (K-562 leukemia): > 100 µM
TGI (TK-10 renal): > 100 µM
TGI (MDA-MB-231 breast): > 100 µM
TGI (SF-268 CNS): > 100 µM
TGI (T-47D breast): > 100 µM
TGI (HCT-116 colon): > 100 µM
TGI (ACHN renal): > 100 µM
TGI (HS 578T breast): > 100 µM
TGI (SR leukemia): > 100 µM
TGI (UO-31 renal): > 100 µM

CCCCCCCCCCCCOCCOCCOCCOCCOCCOCC(=O)NC(Cc1ccccc1)C(=O)Oc1ccc([N+](=O)[O-])cc1 (stereo unspecified)
TGI (786-0 renal): > 100 µM
TGI (EKVX NSCLC): > 100 µM
TGI (MCF7 breast): > 100 µM
TGI (NCI-H23 lung): > 100 µM
TGI (MALME-3M melanoma): > 100 µM
TGI (SF-539 CNS): > 100 µM
TGI (SNB-75 CNS): > 100 µM
TGI (HOP-62 NSCLC): > 100 µM
TGI (MDA-N): > 100 µM
TGI (OVCAR-5 ovarian): > 100 µM
TGI (CAKI-1 renal): > 100 µM
TGI (OVCAR-4 ovarian): > 100 µM
TGI (U251 CNS): > 100 µM
TGI (RPMI-8226 leukemia): > 100 µM
TGI (M14 melanoma): > 100 µM
TGI (NCI/ADR-RES ovarian): > 100 µM
TGI (PC-3 prostate): > 100 µM
TGI (MOLT-4 leukemia): 74.8 µM
TGI (IGROV1 ovarian): > 100 µM
TGI (A498 renal): 75.6 µM
TGI (SF-295 CNS): > 100 µM
TGI (BT-549 breast): > 100 µM
TGI (HCT-15 colon): > 100 µM
TGI (UACC-257 melanoma): > 100 µM
TGI (OVCAR-8 ovarian): > 100 µM
TGI (SK-MEL-5 melanoma): > 100 µM
TGI (SK-MEL-2 melanoma): 47.9 µM
TGI (NCI-H226 lung): > 100 µM
TGI (RXF 393 renal): > 100 µM
TGI (SK-OV-3 ovarian): > 100 µM
TGI (SW-620 colon): > 100 µM
TGI (CCRF-CEM leukemia): > 100 µM
TGI (NCI-H460 lung): > 100 µM
TGI (HT29 colon): > 100 µM
TGI (OVCAR-3 ovarian): 51.9 µM
TGI (LOX IMVI melanoma): > 100 µM
TGI (HL-60(TB) leukemia): > 100 µM
TGI (NCI-H522 lung): > 100 µM
TGI (COLO 205 colon): 35.9 µM
TGI (MDA-MB-435): > 100 µM
TGI (UACC-62 melanoma): 56.4 µM
TGI (HOP-92 NSCLC): > 100 µM
TGI (A549 NSCLC): > 100 µM
TGI (SNB-19 CNS): > 100 µM
TGI (KM12 colon): > 100 µM
TGI (K-562 leukemia): > 100 µM
TGI (TK-10 renal): > 100 µM
TGI (MDA-MB-231 breast): > 100 µM
TGI (SF-268 CNS): > 100 µM
TGI (T-47D breast): > 100 µM
TGI (HCT-116 colon): > 100 µM
TGI (ACHN renal): > 100 µM
TGI (HS 578T breast): > 100 µM
TGI (SR leukemia): 63.9 µM
TGI (UO-31 renal): > 100 µM
